In patent US8030315B2, “DPP-IV inhibitor including beta-amino group, preparation method thereof and pharmaceutical composition containing the same for preventing and treating diabetes or obesity” (Dong-A Pharm. Co., Ltd., priority 2007, dated 2011):

Tests used:
[1] = In vivo kinetic experiments (half-life); details: SD, rat, blood, po, 10 mg/kg
C57BL/6 mice = assay: Oral glucose tolerance test (OGTT); format: in vivo; details: dose of 1 mg/kg, compared to the control group
Description: Blood was collected from caudal veins of animals in the morning on the day of the experiment and a blood glucose level was measured with an Accu-Chek Active Blood Glucose Meter (Roche Diagnostics). […] Blood collection was made at designated time points—just prior to drug administration, just prior to glucose administration, and 5, 15, 30, 60 and 90 min after glucose administration.

Row | SMILES | half-life [1] | blood glucose-lowering effects (C57BL/6 mice)
1 | N[C@@H](CC(=O)N1CCn2c(nnc2C(F)(F)F)C1)Cc1cc(F)c(F)cc1F [MK-0431, reference compound] | 288 min | –
2 | CCOC[C@@H]1C(=O)NCCN1C(=O)C[C@H](N)Cc1cc(F)c(F)cc1F.Cl [Example 3, (R)-4-[(R)-3-amino-4-(2,4,5-trifluorophenyl)butanoyl]-3-(ethoxymethyl)piperazin-2-one hydrochloride] | 456 min | 52%
3 | CC(C)(C)OC[C@@H]1C(=O)NCCN1C(=O)C[C@H](N)Cc1cc(F)c(F)cc1F.O=C(O)C(O)C(O)C(=O)O [Example 12, (R)-4-[(R)-3-amino-4-(2,4,5-trifluorophenyl)butanoyl]-3-(t-butoxymethyl)piperazin-2-one tartrate] | 330 min | 62%
4 | CC(C)(C)OC[C@@H]1C(=O)NCCN1C(=O)C[C@H](N)Cc1cc(F)c(F)cc1F.Cl [Example 1, (R)-4-[(R)-3-amino-4-(2,4,5-trifluorophenyl)butanoyl]-3-(t-butoxymethyl)piperazin-2-one hydrochloride] | 474 min | 54%
